Experimental data: patent publication US4353923A, “Pharmaceutical composition containing a benzofurancarboxamide derivative as the active ingredient” (Kyowa Hakko Kogyo Co., Ltd., priority 1980, dated 1982)

How the values were obtained:
male dd mice [1] = assay: Muscle relaxant activity: slant test; type: in vivo; settings: 5 mice per group
Method: (§1) In this example, 5 male dd mice weighing 20±1 g were used as one group. Prior to the experiments, mice were placed on the rod having a diameter of 3 cm and rotating at 5 r.p.m. in the reverse direction of the rotation. […] The drugs were orally administered and the muscle relaxant activity with the passage of time was examined by the following tests.
Slant test: Each mouse was placed on a wire net inclined at an angle of 45° to observe whether it falls or not.
(§2) In each test, the drug was considered to have a muscle relaxant activity when the mouse fell.

male dd mice [2] = assay: Anticonvulsant activity: maximal electroshock convulsion test; type: in vivo; settings: Mus musculus, po, 1 h, 60 min after administration, read-out: Maximal electroshock convulsion test, inhibition ratio; for responders at 100 mg/kg: 100 mg/kg p.o.; for responders at 150 mg/kg: 150 mg/kg p.o.; for responders at 300 mg/kg: 300 mg/kg p.o.; for responders at 50 mg/kg: 50 mg/kg p.o.; for responders at 75 mg/kg: 75 mg/kg p.o.
Text: Anticonvulsant activity was examined according to maximal electroshock convulsion test.
In this experiment, 10 male dd mice weighing 23±1 g were used as one group. Each drug was orally administered to the animals. Sixty minutes after the administration, an electric current (2000 V, 50 mA) was applied to both eyes of the mouse for 0.2 second. Drug activity was judged according to whether tonic extensor seizures were observed or not.

male Wistar rats = assay: Anti-inflammatory activity: carrageenin edema method; type: in vivo; settings: Rattus norvegicus, po, 3 hours after carrageenin, read-out: Inhibition ratio (paw swelling, vs control); for inhibition in vivo at 150 mg/kg: 150 mg/kg p.o.
Method: In this experiment, 5 male Wistar rats weighing 140±10 g were used as one group. Sixty minutes after oral administration of each drug to each animal, 0.1 ml of a 1% carrageenin solution as a phlogistic agent was injected into the plantar surface of the right hind paw of the animal to induce inflammation. The volume of the paw was measured before and 3 hours after the injection of the phlogistic agent. Swelling ratio and inhibition ratio in comparison with control group were calculated.

male dd mice [3] = assay: Muscle relaxant activity: traction test; type: in vivo; settings: 5 mice per group
Text: as §1
Traction test: Forefeet of the same mouse were placed on a wire to observe whether it falls or not.
as §2

male dd mice [4] = assay: Muscle relaxant activity: rotating rod test; type: in vivo; settings: 5 mice per group
Method: as §1
Rotating rod test: The same mouse was placed on the rotating rod to observe whether it falls or not within 2 minutes.
as §2

in vivo = settings: mouse, po, mice, deaths counted for 7 days
Method: In this example, 3-7 male dd mice weighing 20±1 g were used as one group. Each drug was suspended in a 0.3% CMC solution and orally administered. After the administration, number of dead animals was counted for 7 days to determine LD50 value. As the reference drugs, mepirizole and benzydamine hydrochloride were dissolved in water and orally administered. The drugs and the reference drugs were also administered in the same manner as above in Examples 2-5.

male dd mice [5] = assay: Analgesic activity: acetic acid writhing; type: in vivo; settings: Mus musculus, po, 1 h, acetic acid i.p. after 60 min, read-out: Inhibition ratio (writhes, vs control); for inhibition in vivo at 50 mg/kg: 50 mg/kg p.o.; for inhibition in vivo at 150 mg/kg: 150 mg/kg p.o.
Method: In this experiment, 10 male dd mice weighing 20±1 g were used as one group for examination of analgesic activity. Sixty minutes after oral administration of each drug to each animal, 0.2 ml of a 0.7% acetic acid solution was intraperitoneally administered to the animal. Starting 10 minutes after the administration of acetic acid, the number of writhes occurred in 10 minutes was counted. Average number of writhes and inhibition ratio in comparison with control group were calculated.

Compound | Number of dropped mice, slant test (male dd mice [1]; 150 mg/kg p.o., 1 hr) | Number of dropped mice, slant test (male dd mice [1]; 150 mg/kg p.o., 2 hr) | Number of dropped mice, slant test (male dd mice [1]; 150 mg/kg p.o., 3 hr) | responders at 100 mg/kg (male dd mice [2]) | Number of dropped mice, traction test (male dd mice [3]; 150 mg/kg p.o., 1 hr) | Number of dropped mice, traction test (male dd mice [3]; 150 mg/kg p.o., 2 hr) | Number of dropped mice, traction test (male dd mice [3]; 150 mg/kg p.o., 3 hr) | Number of dropped mice, rotating rod test (male dd mice [4]; 150 mg/kg p.o., 1 hr) | Number of dropped mice, rotating rod test (male dd mice [4]; 150 mg/kg p.o., 2 hr) | Number of dropped mice, rotating rod test (male dd mice [4]; 150 mg/kg p.o., 3 hr) | LD50 at 168 h (in vivo) | inhibition in vivo at 50 mg/kg (male dd mice [5]) | Number of dropped mice, slant test (male dd mice [1]; 300 mg/kg p.o., 1 hr) | Number of dropped mice, slant test (male dd mice [1]; 300 mg/kg p.o., 2 hr) | Number of dropped mice, slant test (male dd mice [1]; 300 mg/kg p.o., 3 hr) | responders at 50 mg/kg (male dd mice [2]) | responders at 75 mg/kg (male dd mice [2]) | inhibition in vivo at 150 mg/kg (male Wistar rats) | Number of dropped mice, traction test (male dd mice [3]; 75 mg/kg p.o., 1 hr) | inhibition in vivo at 150 mg/kg (male dd mice [5]) | further results
COc1cc(C)nc(-n2nc(C)cc2OC)n1 [Mepirizole, mepirizole, reference compound] | 3 mice | 1 mice | 0 mice | 20% | 2 mice | 0 mice | 0 mice | 5 mice | 1 mice | 0 mice | 500 to 1000 mg/kg | 30.4% |  |  |  |  |  |  |  |  | responders at 150 mg/kg (male dd mice [2]): 85.7%; responders at 300 mg/kg (male dd mice [2]): 100%; inhibition in vivo at 100 mg/kg (male Wistar rats; 100 mg/kg p.o.): 29.2%; inhibition in vivo at 200 mg/kg (male Wistar rats; 200 mg/kg p.o.): 47%; inhibition in vivo at 200 mg/kg (male dd mice [5]; 200 mg/kg p.o.): 84.7%
Cc1c(C(=O)N(C)C)oc2cc(Cl)ccc12 [Compound (B), 6-Chloro-N,N,3-trimethyl-benzo[b]furan-2-carboxamide] |  |  |  |  | 5 mice | 5 mice | 5 mice | 5 mice | 5 mice | 5 mice | 500 to 1000 mg/kg | 34.9% | 5 mice | 5 mice | 5 mice | 40% | 60% | 39.8% | 3 mice | 95.4% | responders at 25 mg/kg (male dd mice [2]; 25 mg/kg p.o.): 0%; Number of dropped mice, traction test (male dd mice [3]; 75 mg/kg p.o., 2 hr): 4 mice; Number of dropped mice, traction test (male dd mice [3]; 75 mg/kg p.o., 3 hr): 2 mice; Number of dropped mice, rotating rod test (male dd mice [4]; 75 mg/kg p.o., 1 hr): 5 mice; Number of dropped mice, rotating rod test (male dd mice [4]; 75 mg/kg p.o., 2 hr): 4 mice; Number of dropped mice, rotating rod test (male dd mice [4]; 75 mg/kg p.o., 3 hr): 4 mice
Cc1c(C(=O)N(C)C)oc2ccc(Cl)cc12 [Compound (G), 5-Chloro-N,N,3-trimethyl-benzo[b]furan-2-carboxamide] | 3 mice | 2 mice | 2 mice | 100% | 3 mice | 3 mice | 2 mice | 5 mice | 4 mice | 3 mice | > 1000 mg/kg |  | 5 mice | 5 mice | 5 mice | 0% | 40% | 45.7% | 1 mice | 91.4% | Number of dropped mice, traction test (male dd mice [3]; 75 mg/kg p.o., 2 hr): 1 mice; Number of dropped mice, traction test (male dd mice [3]; 75 mg/kg p.o., 3 hr): 1 mice; Number of dropped mice, rotating rod test (male dd mice [4]; 75 mg/kg p.o., 1 hr): 3 mice; Number of dropped mice, rotating rod test (male dd mice [4]; 75 mg/kg p.o., 2 hr): 1 mice; Number of dropped mice, rotating rod test (male dd mice [4]; 75 mg/kg p.o., 3 hr): 1 mice
Cc1ccc2oc(C(=O)N(C)C)c(C)c2c1 [Compound (E), N,N,3,5-Tetramethylbenzo-[b]furan-2-carboxamide] | 1 mice | 0 mice | 0 mice |  | 0 mice | 0 mice | 0 mice | 1 mice | 0 mice | 0 mice | > 1000 mg/kg |  | 3 mice | 2 mice | 1 mice |  |  | 14.7% |  | 22.6% | responders at 150 mg/kg (male dd mice [2]): 10%; responders at 300 mg/kg (male dd mice [2]): 57.1%; Number of dropped mice, traction test (male dd mice [3]; 300 mg/kg p.o., 1 hr): 3 mice; Number of dropped mice, traction test (male dd mice [3]; 300 mg/kg p.o., 2 hr): 1 mice; Number of dropped mice, traction test (male dd mice [3]; 300 mg/kg p.o., 3 hr): 1 mice; Number of dropped mice, rotating rod test (male dd mice [4]; 300 mg/kg p.o., 1 hr): 4 mice; Number of dropped mice, rotating rod test (male dd mice [4]; 300 mg/kg p.o., 2 hr): 2 mice; Number of dropped mice, rotating rod test (male dd mice [4]; 300 mg/kg p.o., 3 hr): 2 mice
Cc1c(C(=O)N(C)C)oc2ccc(F)cc12 [Compound (D), 5-Fluoro-N,N,3-trimethyl-benzo[b]furan-2-carboxamide] | 4 mice | 4 mice | 1 mice | 90% | 4 mice | 3 mice | 2 mice | 5 mice | 5 mice | 3 mice | 700 to 1000 mg/kg | 44.2% |  |  |  | 10% | 40% | 34% | 2 mice | 95.4% | Number of dropped mice, traction test (male dd mice [3]; 50 mg/kg p.o., 1 hr): 0 mice; Number of dropped mice, traction test (male dd mice [3]; 50 mg/kg p.o., 2 hr): 0 mice; Number of dropped mice, traction test (male dd mice [3]; 50 mg/kg p.o., 3 hr): 0 mice; Number of dropped mice, traction test (male dd mice [3]; 75 mg/kg p.o., 2 hr): 1 mice; Number of dropped mice, traction test (male dd mice [3]; 75 mg/kg p.o., 3 hr): 0 mice; Number of dropped mice, traction test (male dd mice [3]; 100 mg/kg p.o., 1 hr): 2 mice; Number of dropped mice, traction test (male dd mice [3]; 100 mg/kg p.o., 2 hr): 1 mice; Number of dropped mice, traction test (male dd mice [3]; 100 mg/kg p.o., 3 hr): 0 mice; Number of dropped mice, rotating rod test (male dd mice [4]; 50 mg/kg p.o., 1 hr): 0 mice; Number of dropped mice, rotating rod test (male dd mice [4]; 50 mg/kg p.o., 2 hr): 0 mice; Number of dropped mice, rotating rod test (male dd mice [4]; 50 mg/kg p.o., 3 hr): 0 mice; Number of dropped mice, rotating rod test (male dd mice [4]; 75 mg/kg p.o., 1 hr): 3 mice; Number of dropped mice, rotating rod test (male dd mice [4]; 75 mg/kg p.o., 2 hr): 1 mice; Number of dropped mice, rotating rod test (male dd mice [4]; 75 mg/kg p.o., 3 hr): 0 mice; Number of dropped mice, rotating rod test (male dd mice [4]; 100 mg/kg p.o., 1 hr): 5 mice; Number of dropped mice, rotating rod test (male dd mice [4]; 100 mg/kg p.o., 2 hr): 3 mice; Number of dropped mice, rotating rod test (male dd mice [4]; 100 mg/kg p.o., 3 hr): 1 mice
